What is called solubility (kinetic) is solubility judged after dilution from a stock solution rather than from solid.

Converted amounts (≈) assume the structure as drawn.

We go through 51 molecules from PubChem BioAssay AID1996.

For this data set the following is noted: buffer; pH 7.4; 200.0 µM.
`COC(=O)c1sccc1NC(=O)Nc1cccc(C)c1C` had a kinetic solubility of 8.1 µg/mL (≈ 26.6 µM). The figure for `O=C(O)c1ccc(/C=C/c2nc3ccccc3c(=O)[nH]2)cc1` is more than 43.8 µg/mL. Molecule `CC(=O)Nc1c(Cl)cnn(-c2ccccc2)c1=O` showed a solubility (kinetic) of more than 39.6 µg/mL.

Turning to `CCOC(=O)c1sc(-c2cccc(C(F)(F)F)c2)nc1O`, the kinetic solubility was determined as 36.5 µg/mL (≈ 115 µM). Molecule `O=C(O)c1ccc(Nc2ccc(F)c(F)c2)c([N+](=O)[O-])c1` yielded a solubility (kinetic) of more than 44.1 µg/mL. `CC(C)c1ccc(C(=O)Nc2cccnc2)cc1`: the kinetic solubility was more than 36 µg/mL. Next, `c1ccc2nc(-c3ccc(-n4ccnc4)cc3)ccc2c1`: 6.2 µg/mL (≈ 22.9 µM); `CC(=O)Nc1ccc(Nc2nc(C)cc(C)n2)cc1`: more than 38.4 µg/mL.

Molecule `COn1c(-c2ccc(C)cc2)nc2ncccc21` returned a solubility (kinetic) of more than 35.9 µg/mL. As for `O=C(CN1CCCCCCC1)NC(=O)NC1CCCCC1`, the solubility (kinetic) amounted to 30.2 µg/mL (≈ 102 µM).

With `COc1ccccc1CNC(c1ccccc1)c1ccccc1`, the kinetic solubility came to 3.3 µg/mL (≈ 10.9 µM). The figure for `O=C1CN(C(=O)/C=C/c2cc(Br)ccc2F)CCN1` is more than 49.1 µg/mL; for `CN1CCN(CC(=O)Nc2nc3ccccc3s2)CC1.O=CO` it is 50.4 µg/mL; for `Cn1c(=O)n(CCO)c(=O)c2c1nc(Br)n2Cc1ccccc1` it is more than 56.9 µg/mL.

Take `CC1CCN(CC(=O)N2c3ccccc3CC2C)CC1.Cl` (stereo unspecified): the solubility (kinetic) was more than 46.3 µg/mL. The figure for `O=C(COC(=O)c1cnccn1)Nc1ncc(C(F)(F)F)cc1Cl` is 53.4 µg/mL (≈ 148 µM).

Turning to `CC1NC(=O)NC1CCCCCC(=O)Nc1ccc(F)cc1` (stereo unspecified), the kinetic solubility was more than 46.1 µg/mL. The figure for `Cc1cccc2nc(-c3ccco3)c(Nc3ccccc3)n12` is 2.9 µg/mL (≈ 10 µM); for `CCc1ccc(NC(=S)Nc2cccc3cnccc23)cc1` it is 11.6 µg/mL (≈ 37.7 µM). The figure for `CCOC(=O)c1[nH]c2cc3c(cc2c1NC(=O)CN1CCCC1)OCO3` is 18 µg/mL (≈ 50.1 µM); for `O=C(OCC(=O)N1CCN(c2ccccc2)CC1)c1ccc[n+]([O-])c1` it is 44.5 µg/mL (≈ 130 µM); for `CCC1CCCCN1Cc1c(O)ccc2c(=O)c(-c3ccccc3)coc12` (stereo unspecified) it is 50.1 µg/mL (≈ 138 µM). Next, `CC(C)(C)c1ccc(/C=C/C(=O)NCCCN2CCOCC2)cc1`: 32.3 µg/mL (≈ 97.7 µM); `CC(C)NC[C@H](O)COc1cccc2ccccc12.Cl`: more than 44.4 µg/mL; `COc1ccc(-c2c(C(F)(F)F)nn(C)c2NC(=O)c2ccco2)cc1`: more than 54.8 µg/mL. As to `C=CCN(c1ccccc1)S(=O)(=O)c1cccc(C(=O)NCc2ccco2)c1`, the solubility (kinetic) is 23.9 µg/mL (≈ 60.3 µM). Next, `CC1CCCC(C)N1C(=O)COC(=O)c1nn(C)c(=O)c2ccccc12` (stereo unspecified): more than 53.6 µg/mL; `COc1ccc(C(=O)n2cnc3ccccc32)cc1`: more than 37.8 µg/mL. Next, `CC(C)(C)c1ccc(NC(=O)c2ccsc2)cc1`: 1.1 µg/mL (≈ 4.24 µM); `COc1cc(C(=O)Nc2ccn(C)n2)ccc1OC(F)F`: more than 44.6 µg/mL; `COc1cccc(CNc2ccc(N3CCCCC3)cc2)c1OC`: 39.5 µg/mL (≈ 121 µM).

The molecule `O=C(CN1C(=O)NC(Cc2c[nH]c3ccccc23)C1=O)Nc1ccc(F)cc1F` (stereo unspecified) displayed a solubility (kinetic) of 19 µg/mL (≈ 47.7 µM). The figure for `COc1ccccc1OCCCCn1c(C(C)O)nc2ccccc21` (stereo unspecified) is 49.9 µg/mL (≈ 147 µM); for `COc1ccc2nc(NC(=O)NC3CCCCC3)sc2c1` it is less than 0.2 µg/mL; for `O=C(NCc1ccccc1Cl)c1ccc(Br)o1` it is 41.9 µg/mL (≈ 133 µM). Molecule `O=C1Cc2ccccc2C(=O)N1c1ccc(F)cc1Cl` came in with a kinetic solubility of 37.3 µg/mL (≈ 129 µM). As for `CCOC(=O)C1CCCN(Cc2cc(=O)oc3cc(C)ccc23)C1` (stereo unspecified), the solubility (kinetic) came to 40.5 µg/mL (≈ 123 µM). The molecule `O=C(O)CC/C(=N\NC(=O)CNC(=O)/C=C/c1ccccc1)c1ccccc1` displayed a solubility (kinetic) of more than 56.9 µg/mL. Next, `COc1ccc(Cl)cc1N1C(=O)CC(Sc2ccccc2N)C1=O` (stereo unspecified): less than 0.4 µg/mL; `C/C(=N\N1CCN(C)CC1)c1ccc(OC(F)F)cc1`: more than 42.5 µg/mL. The figure for `COc1cc(F)ccc1S(=O)(=O)n1c(C)nc2ccccc21` is more than 48.1 µg/mL; for `COc1cc(C(F)(F)F)ccc1C(=O)NCCc1ccco1` it is 42.9 µg/mL (≈ 137 µM). Take `COc1ccccc1C(=O)NCCC(=O)NC1CCCCCC1`: the kinetic solubility is more than 47.8 µg/mL. The figure for `CCN(CC(=O)Nc1ccc2c(c1)OCCO2)C(=O)c1ccccc1Br` is more than 62.9 µg/mL.

`CCN1CCN(c2ccc(NC(=O)c3cnccn3)cc2)CC1`: the kinetic solubility was more than 46.7 µg/mL. For `Cc1c(C(=O)Nc2cccc(S(=O)(=O)N3CCOCC3)c2)oc2ccccc12`, the solubility (kinetic) is 2.3 µg/mL (≈ 5.74 µM). Next, `CCOc1ccccc1NS(=O)(=O)c1ccc2oc(=O)ccc2c1`: 43.6 µg/mL (≈ 126 µM).

Take `O=C(CSc1ccccc1)Nc1ccc2c(c1)OCO2`: the kinetic solubility turned out to be 41.8 µg/mL (≈ 145 µM).

`CN(C)CCCN(Cc1ccc2c(c1)OCO2)C(=O)NC1CCCCC1` displayed a kinetic solubility of more than 54.2 µg/mL. The figure for `COc1cc2c(cc1OC)C(C)N(S(=O)(=O)c1ccc(C)cc1)CC2` (stereo unspecified) is 26.8 µg/mL (≈ 74.1 µM); for `CCOc1ccc(CC(=O)N/N=C(\C)c2cccnc2)cc1` it is more than 44.6 µg/mL.
